Data from patent publication US10646529B2, “Methods of obtaining natural products from the comestible fluids and methods of use” (BOARD OF TRUSTEES, RUTGERS, THE STATE UNIVERSITY OF NEW …, priority 2010, dated 2020).
One block for each compound: values may come before it.

What was measured:
Assay type in all cases: physicochemical
[1] = Sorption of 6-gingerol to full-fat soybean flour (HPLC-MS peak area); conditions: 6-gingerol 9 μg/ml in water, full-fat soybean flour 30 g/L, 10 ml, 5 minutes
Description: 6-Gingerol (Sigma) was diluted in water to a concentration of 9 μg/ml. Full-fat soybean flour was added to the solution at a concentration of 30 g/L in a volume of 10 ml, mixed for 5 minutes and then centrifuged for 10 minutes at 4000 rpm. The supernatant was removed. Full-fat soybean flour was used as a control. Both the 6-gingerol solution before soybean flour treatment (i.e., plant juice) and that obtained after soybean flour treatment (i.e., plant liquor) were subjected to HPLC-MS; the injection volume for each sample was 10 μl.

[2] = Sorption of quercetin from grape juice by soybean flour (HPLC-MS); conditions: 5 minutes, n=1; for % Quercetin Sorbed to SF / Concentration of Quercetin in Soybean flour: Concord grape juice 50 mL, soybean flour 30 g/L
Description: Soybean flour (30 g/L) was added to 50 mL of Concord grape juice and mixed at room temperature for five minutes. The juice was separated from the flour by centrifugation and then filtered through a 0.22 μm syringe filter. Untreated and soybean flour-treated juice samples (n=1) were processed as described in Example 8 and the quercetin content of untreated and soybean flour-treated samples was determined by HPLC-MS. Quercetin is a polyphenolic flavonoid compound. More specifically, it is a flavonol known in the art to have anti-inflammatory and antioxidant properties, and it is expected to be useful in treating cancer. Quercetin is also known to have endurance-promoting effects.

[3] = Sorption of resveratrol from grape juice by soybean flour (HPLC-MS)
Description: Soybean flour (30 g/L) was added to 50 mL of Concord grape juice and mixed at room temperature for five minutes. The juice was separated from the flour by centrifugation and then filtered through a 0.22 μm syringe filter. The resveratrol content of the untreated and flour-treated juice samples (n=1) was quantified by HPLC-MS according to a previously published method (Wang et al., J. Agric. Food Chem., 50:431-435, 2002, the disclosure of which is incorporated herein by reference in its entirety.).
The enriched substance was prepared as follows. Briefly, 2 ml of untreated or soybean flour-treated grape juice sample was mixed with 20 ml of methanol overnight and samples were then centrifuged at 2280 g for 5 minutes and the methanol portion was removed. The solid residue was washed with an additional 10 ml of methanol. Methanol supernatants were combined and evaporated using a rotary evaporator and the methanol-free samples were diluted in 10 ml of water for enzymatic hydrolysis with 30 mg β-D-glucosidase (2.3 units/mg). Each sample was then extracted four times with 7 ml of water-saturated ethyl acetate. Ethyl acetate extracts were combined and evaporated to dryness under vacuum using a rotary evaporator. Residues were dissolved in 1 ml of methanol/0.5% formic acid (7:3; v/v) for LC-MS analysis. Standards of resveratrol were prepared for LC-MS to generate standard curves and quantify the levels of each compound in juice samples.

[4] = Sorption of caffeine from green tea by defatted soybean flour (HPLC-MS); conditions: green tea after SFDF 30 g/L, n=1
Description: The amount of caffeine in the untreated and soybean flour-treated tea samples (n=1) was also tested. […] Caffeine is a psychoactive stimulant that provides health benefits beyond the familiar increase in alertness and energy associated with coffee and tea consumption. The untreated and flour-treated tea samples described above were diluted 10 times in 0.1% acetic acid (1 μL glacial acetic acid and 1 mL water). Samples were subject to HPLC-MS and caffeine was quantified against a caffeine standard curve.

[5] = Sorption of sesquiterpene lactones from chicory root extract to defatted soybean flour (HPLC-MS peak area); conditions: chicory root water extract 50 ml, defatted soybean flour 100 g/L, 5 minutes
Description: Dried chicory root was ground to a powder and 25 g was extracted in 500 ml of water for three hours in a 50° C. water bath with sonication. The water extract was separated from the plant material by filtration. Defatted soybean flour was mixed for 5 minutes with 50 ml of the chicory root extract at a concentration of 100 g/L followed by centrifugation (10 minutes, 15,000 rpm) and filtration of the supernatant. Untreated and soybean flour-treated chicory root extract were subjected to HPLC-MS; the injection volume for each sample was 10 μl. The amounts of the dihydrolactucin, lactucopicrin and dihydrolactucopicrin compounds present in the chicory root extract sorbed to the soybean flour were determined by calculating the percent decrease in peak area before and after treatment of the chicory extract with soybean flour.

[6] = Concord grape juice 50 mL, soybean flour 30 g/L, 5 minutes, n=1

- % of compound sorbed by soybean flour from chicory root extract (percent decrease in peak area) [5]: 80%
Compound: CC1=C2C(=O)C=C(CO)[C@@H]2[C@H]2OC(=O)[C@@H](C)[C@@H]2[C@H](OC(=O)Cc2ccc(O)cc2)C1 [dihydrolactucopicrin]

- % of compound sorbed by soybean flour from chicory root extract (percent decrease in peak area) [5]: 100%
Compound: lactucopicrin

The remaining lines, values behind:

Compound: CCCCC[C@H](O)CC(=O)CCc1ccc(O)c(OC)c1 [6-gingerol, 6-Gingerol]
- % of 6-gingerol sorbed by soybean flour (percent decrease in peak area) [1]: 63%

Compound: O=c1c(O)c(-c2ccc(O)c(O)c2)oc2cc(O)cc(O)c12 [Quercetin]
- Quercetin in Grape Juice ([2]; Concord grape juice 50 mL after soybean flour 30 g/L): 519 ng/mL
- % Quercetin Sorbed to SF [2]: 74%
- Concentration of Quercetin in Soybean flour [2]: 49.3 µg/g
- % Quercetin Sorbed to SF ([2]; listed as quercetin): about 74%
- Concentration of Quercetin in Soybean flour ([2]; listed as quercetin): approximately 49.3 μg/g

Compound: Oc1ccc(C=Cc2cc(O)cc(O)c2)cc1 [Resveratrol]
- Bound resveratrol (amount) ([3]; 1.5 g soybean flour in 50 mL grape juice): 88.8 mg
- Resveratrol in Grape Juice ([3]; Concord grape juice 50 mL after soybean flour 30 g/L, 5 minutes, n=1): 325 ng/mL
- % Resveratrol Sorbed to SF [3, 6]: 85%
- Concentration of Resveratrol in SF [3, 6]: 59.2 µg/g

Compound: Cn1c(=O)c2c(ncn2C)n(C)c1=O [caffeine]
- Caffeine Concentration [4]: 383.1 mg/L
